Data set [1] concerns EJ Human Bladder Carcinoma. The experiment in a line: Initial in vitro screening, bladder carcinoma cells. Type of data set: cell-based. The settings on record: cell line 5, EJ human bladder carcinoma; unit from method; read-out: IC50 (concentration at which 50% of the cells of the culture are killed). From the text: (§1) Other publications have shown that some cyanine dyes show anti-cancer activity. See I. Minami, Y. Kozai, H. Nomura and T. Tashiro, Chem. Phar. Bull. 30:3106 (1982); W. M. Anderson, D. L. Delinick, L. Benninger, J. M. Wood, S. T. Smiley and L. B. Chen, Biochemical Pharmacology, 45:691 (1993). […] (See L. G. S. Brooker, L. A. Sweet, Science, 105, (1947) and I. Minami, Y. Kozai, H. Nomura, T. Tashiro, Chem. Pharm. Bull., 30,3106 (1982) on chemotherapeutic investigations of cyanine dyes.) Table I lists initial in vitro screening results in various cell lines and a comparison with Adriamycin, which is a widely used chemotherapeutic agent.
(§2) Description of Cell Line • 1. CV-1 Normal Monkey Kidney Epithelial (control) • 2. CX-1 Human Colon Carcinoma • 3. Human Breast Carcinoma • 4. Human Pancreatic Carcinoma • 5. Human Bladder Carcinoma • 6. Human Lung Carcinoma • 7. Human Squamous Cell Carcinoma • 8. Human Adrenal Cortex Carcinoma

The test system of data set [2] is CRL 1420 Human Pancreatic Carcinoma. The experiment in a line: Initial in vitro screening, pancreatic carcinoma cells. Type of data set: cell-based. To be noted: cell line 4, CRL 1420 human pancreatic carcinoma; unit from method; read-out: IC50 (concentration at which 50% of the cells of the culture are killed).
Text: as §1, §2

The subject of data set [3] is CV-1 Normal Monkey Kidney Epithelial. Description: Clonogenic dye screening assay, CV-1 cells (IC50). Type of data set: cell-based, African green monkey. The settings on record: Primates, unit from method. From the text: CX-1 is a cancerous human colon adenocarcinoma cell line. CV-1 is a non-cancerous control, which is a kidney epithelial cell line from an African green monkey. IC50 is the dye concentration at which 50% of the cells are killed. Selectivity or kill ratio is defined as the ratio of […] at IC50 for both CX-1 and CV-1. A ratio with a high number indicates a high selectivity.
The dyes were screened in two cell lines. CX-1 is a human colon adenocarcinoma cell line. CV-1 is a kidney epithelial cell line from an African green monkey. CV-1 was used as a reference because no normal human epithelial cell line is available for clonogenic assay.
In the initial screen, dyes were examined at six different concentrations to generate a dose response curve. An IC50 value, the concentration at which 50% of the cells are killed, was then calculated. Initially, a dye concentration of 1.0 μg/mL was the highest examined for the CX-1 cell line and 0.005 μg/mL was the lower limit. The corresponding limits on the CV-1 cell line were […].
The screening procedure used a response curve that was determined from eight dye concentrations. The upper and lower limits of CX-1 were 0.32 and 0.0015 μg/mL, respectively, and the corresponding revised limits on CV-1 were 3.2 and 0.025 μg/mL. The screening results were reported by assigning an IC50 value to each dye for the CV-1 and CX-1 cell lines. These values will be referred to herein simply as CV and CX. The most desirable result would be to have a dye that was highly toxic to carcinoma cells but nontoxic to ‘normal’ cells. One measure of this type of selectivity is the ratio of the IC50's in the normal cell line to that in the carcinoma line, CV/CX.
Compounds are screened via an in vitro assay. CV-1 and CX-1 cells are seeded into separate assay plates. The plates are treated with varying concentrations of test compounds, rinsed, and colonies allowed to grow. IC50's are determined and drugs evaluated based on their selectivity and toxicity. Assay Steps: • I. Seeding Cells • II. Weighing • III. Preparation of Solution • IV. Treatment • V. Rinsing and Feeding • VI. Fixing • VII. IC50 Determination I. Seeding Cells
The cells should be seeded 16-30 hours before treatment. The media for CV-1 cells is DME+5% calf serum +5% Nuserum. The media for CX-1 cells is RPMI/DME (50/50)+5% calf serum +5% Nuserum.
(c) number of cells based on 2000 CX-1 cells/well and 1000 CV-1 cells/well. NOTE: Always make enough cell suspension for 1 extra plate to allow for volume loss during transfers.
• (a) For CV-1: 256 ug/ml-256 ul of 1 mg/ml stock +744 ul DMSO • (b) For CX-1: 25.6 ug/ml-100 ul of 256 ug/ml+900 ul DMSO IV. Treatment • 1. Each plate is treated with 4 test compounds, one positive control and one negative control. • 2. Serial dilutions of the compounds are made in the following way:
2 multi-well pipetters are used. One is set for 10 ul and one for 200 ul. Each is equipped with 6 tips spaced such that they fit into the 6 rows of a plate. 390 ul of media is added to the first column of each plate. 10 ul each of 4 compound solutions, a positive and a negative control are taken up and put into the first column of wells. The 200 ul pipetter is then placed in the same wells, pipetted up and down 3 times and two 200 ul aliquots are moved to the next column of wells. This column is pipetted up and down 3 times and 400 ul moved to column 3, etc. The final 400 ul excess from column 8 is discarded.
• 3. Label the plates along the front, each row −1 compound. • 4. Incubate the plates at 37° C. for 3 hrs. V. Rinsing • 1. Prepare several bottles of CX-1 and CV-1 media. • 2. Check for precipitate in first column of each plate and note. • 3. Starting with the plates treated first, rinse several plates at a time by aspirating the treatments and refilling each well with 0.5-1.0 ml of the rinse media. Aspirate and refill 2 more times for a total of 3 rinses. • 4.

Data set [4] concerns CX-1 Human Colon Carcinoma. Description: Clonogenic dye screening assay, CX-1 cells (IC50). Type of data set: cell-based. The settings on record: for IC50: Homo sapiens, unit from method; for CV/CX (selectivity, kill ratio): ratio of IC50 in normal CV-1 line to IC50 in carcinoma CX-1 line; for Selectivity: Table 1, cell line not given, values equal CV/CX of Table II. The gist of the method:
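Cells seeded 16-30 h ahead (2000 CX-1 or 1000 CV-1 per well), exposed to serially diluted dyes for 3 h at 37 °C, rinsed three times, then grown into colonies. Eight-point curves spanned 0.32-0.0015 μg/mL (CX-1) and 3.2-0.025 μg/mL (CV-1). IC50 is the concentration killing 50% of cells.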

The test system of data set [5] is CCL 105 Human Adrenal Cortex Carcinoma. The experiment in a line: Initial in vitro screening, adrenal cortex carcinoma cells. Type of data set: cell-based. The settings on record: cell line 8, CCL 105 human adrenal cortex carcinoma; unit from method; read-out: IC50 (concentration at which 50% of the cells of the culture are killed).
Text: as §1, §2

Data set [6] relates to CCL 185 Human Lung Carcinoma. The experiment in a line: Initial in vitro screening, lung carcinoma cells. The settings on record: cell line 6, CCL 185 human lung carcinoma; unit from method; read-out: IC50 (concentration at which 50% of the cells of the culture are killed). Type of data set: cell-based.
Text: as §1, §2

The subject of data set [7] is SCC 68 Human Squamous Cell Carcinoma. The experiment in a line: Initial in vitro screening, squamous cell carcinoma cells. Type of data set: cell-based. To be noted: cell line 7, SCC 68 human squamous cell carcinoma; unit from method; read-out: IC50 (concentration at which 50% of the cells of the culture are killed).
Text: as §1, §2

Data set [8] has as its system MCF-7 Human Breast Carcinoma. Description: Initial in vitro screening, breast carcinoma cells. To be noted: MCF7; cell line 3, MCF-7 human breast carcinoma; unit from method; read-out: IC50 (concentration at which 50% of the cells of the culture are killed). Type of data set: cell-based.
Text: as §1, §2

A short description of data set [9]: Dye solubility (water, 5% dextrose/water). Type of data set: physicochemical. From the text:
Dye solubility is also a factor, since compounds having low water solubility are difficult or impossible to include in in vivo testing.
S13 is one of the simplest cyanine dye structures possible (in this nomenclature the S refers to the sulfur, the 1 indicates one carbon on the nitrogen and 3 indicates a 3 methine chain). […] A synthetic challenge will be to enhance the activity/selectivity of this dye and retain its good water solubility. [drawing 23]

The nature of data set [10]: Electrochemical reduction potential (Er) measurement, SHACV / fast scan CV. Type of data set: physicochemical. From the text: In the practice of this invention the reduction potential of a given dye may be determined in various ways. If available, the published reduction potential may be employed. Reduction potentials for numerous cyanine and merocyanine dyes are available in the literature. (See J. Lenhard, Journal of Imaging Science, vol. 30 pp. 27-35 (1986).) A large amount of data has been generated on the reduction and oxidation potentials of these dyes from their use in photography and related arts where they are employed, inter alia, as spectral sensitizers.
If a published reduction potential is not available, suitable techniques for measuring reduction potential are available. Accurate electrochemical oxidation and reduction potentials for these organic dyes can be measured by the techniques of fast scan cyclic voltommetry (CV) or second harmonic ac voltommetry (SHACV). SHACV measurements are made as described by Lenhard in the Journal of Imaging Science volume 30, 1986 pp 27-35 using a commercially available (Princeton Applied Research Corp.) potentiostat in conjunction with voltage programmer, a conventional lock-in amplifier, and a low-distortion oscillator. The SHACV method utilizes an ac voltage waveform (of a frequency greater than or equal to 400 hz) that is superimposed on a DC potential ramp. On the other hand, the measurement of the oxidation or reduction potential by the CV method utilizes a (high frequency) triangular voltage waveform. The general procedures for measuring potentials by this method have been described by Wightman in Analytical Chemistry, 1984, vol. 56, pp524 and Journal of Physical Chemistry, 1984, vol. 88, pp3915. The specific application of this technique to the measurement of cyanine dye potentials has been reported by Nomura and Okazaki, Chemistry Letters, 1990, pp2231-2234. Commercial instrumentation especially designed for fast scan (i.e., high frequency) CV is available. It is noteworthy that because of the complicated nature of many of the cyanine dyes, electrochemical reactions, conventional slow scan cyclic voltommetry or polarography methods (as described by R. Large in Photographic Sensitivity, R. Cox, ed., Academic Press, New York, 1973, pp 241-263) provide only approximate values for oxidation and reduction potentials. Errors as large as 0.4 V from the true potential can be obtained by using slow scan CV or electrochemical methods.
The procedure for measuring the oxidation or reduction potential by the SHACV or fast scan CV method utilizes solutions of acetonitrile (or similar nonaqueous solvent) with added tetrabutylammonium tetrafluoroborate TBABF4 at a concentration of 0.1 M and ca. 5×10^−4 M of the cyanine, oxonol, or merocyanine dye. For measurement of the reduction potential the solution must be deaerated with argon prior to examination. The preferred working electrode is a Pt disk (ca. 0.02 cm^2) that is polished with 1 μm diamond paste, rinsed with water, and dried before each experiment. The reference electrode is a NaCl saturated calomel electrode. The cell and reference electrodes are maintained at 22 C. A value of 40 mV is added to the measured potentials to convert the number to that corresponding to an Ag/AgCl reference electrode. If a solvent other than acetonitrile is used then the measured potential must be referenced to a standard organic redox system such as ferrocene and corrected accordingly.
SHACV (Second Harmonic Alternating Current Voltametry) measurements are made as described by Lenhard in the Journal of Imaging Science volume 30, 1986 pp 27-35 using a commercially available (Princeton Applied Research Corp.) potentiostat in conjunction with voltage programmer, a conventional lock-in amplifier, and a low-distortion oscillator. The SHACV method utilizes an ac voltage waveform (of a frequency greater than or equal to 400 hz) that is superimposed on a DC potential ramp. […]

The mark [11] stands for this setting: CX-1, 3 hrs treatment, colonies after 7-10 days, read-out: CX (IC50 in the CX-1 cell line).
Where [12] appears, read: CV-1, 3 hrs treatment, colonies after 7-10 days, read-out: CV (IC50 in the CV-1 cell line).

Read-outs that look alike come from different tables or passages of the source.

On to `CCN1/C(=C/N=N/c2sc3ccccc3[n+]2CC)Sc2ccccc21` [Dye O-1, reference compound], for which the IC50 in [1] is 0.3 µg/mL; in data set [2] it was 0.75 µg/mL; in data set [3] (CV-1, cell line 1, CV-1 normal control, read-out: IC50 (concentration at which 50% of the cells of the culture are killed)) it was 7.5 µg/mL; in [4] (CX-1, cell line 2, CX-1, read-out: IC50 (concentration at which 50% of the cells of the culture are killed)), 0.5 µg/mL; in data set [5] it was 0.3 µg/mL; in [6] it was 0.8 µg/mL. Further, the IC50 in [7] and in data set [8] was 0.3 µg/mL in each case.

For the molecule `CN1/C(=C/C=C/c2sc3cc4ccccc4cc3[n+]2C)Sc2cc3ccccc3cc21.Cc1ccc(S(=O)(=O)[O-])cc1` [Dye D-140], the solubility result in data set [9] (among compounds with enhanced activity) is reported as “most desirably soluble”. Further, the “CX (IC50 in the CX-1 cell line)” value in data set [4] (3 hrs treatment, colonies after 7-10 days, unit from method b117-118) was less than 0.005 µg/mL. Also, the “CV/CX (selectivity, kill ratio)” value in data set [4] is 60.

Regarding `Clc1ccc2c(c1)N1CCC(/C=C3\CC[n+]4c3sc3ccc(Cl)cc34)=C1S2` [Dye D-168], the IC50 in [4] (setting [11]) was determined as 3 µg/mL. Further, in data set [4], the Selectivity was found to be 100.0 and the “CV/CX (selectivity, kill ratio)” value was 100.0. For the same molecule, the “ER(v), electrochemical reduction potential” value in [10] is −0.9 V.

Regarding `CN1/C(=C/C=C/c2sc3ccccc3[n+]2C)Sc2ccccc21` [Dye S13], the “solubility in 5% dextrose/water solutions” value in data set [9] (5% dextrose/water) was “good solubility”.

`CC[n+]1c(/C=C/C(C(=O)c2ccccc2)=P(c2ccccc2)(c2ccccc2)c2ccccc2)sc2ccccc21` [Dye D-148]: the IC50 in data set [3] (setting [12]) was greater than 10 µg/mL. Besides, in data set [4] (setting [11]), the IC50 is 0.04 µg/mL. Further, in [4], the Selectivity worked out at 250 and the “CV/CX (selectivity, kill ratio)” value is given as 250. The “ER(v), electrochemical reduction potential” value in data set [10] is −1.15 V.

For the molecule `CCN1/C(=c2\s/c(=c3\s/c(=C/c4sc5ccccc5[n+]4CC)n(CC)c3=O)n(CC)c2=O)Sc2ccccc21` [Dye D-112], the IC50 in [3] (setting [12]) amounted to 9 µg/mL. In addition, in data set [4] (setting [11]), the IC50 was determined as 0.01 µg/mL. In addition, in data set [4], the Selectivity was 900 and the “CV/CX (selectivity, kill ratio)” value is 900. Also, the “ER(v), electrochemical reduction potential” value in data set [10] is −1.1 V.

Values taken from patent publication US20060099712A1, “Correlation of anti-cancer activity of dyes with redox potentials” (Eastman Kodak Company, priority 2004, published 2006).
